Like-named read-outs stand apart in the source and are kept apart here.
Legend:
[1] = target: T1, isocitrate lyase (ICL) (Candida albicans, UniProt Q9P8Q7); assay: biochemical
T1 construct: gene ICL1; recombinant ICL

[2] = test system: T2, C. albicans; assay: microbe, parasite or virus in culture; parameters: broth microdilution antifungal MIC in RPMI 1640, growth inhibition; conditions: Candida albicans, 24 h
T2 construct: ATCC 10231
Method: (§1) Potato dextrose agar (PDA) was used to cultivate Candida albicans ATCC 10231. After incubation for 48 h at 28 °C, the yeast cells were harvested by centrifugation and washed twice with sterile distilled water. Aspergillus fumigatus HIC 6094, Trichophyton rubrum NBRC 9185, and Trichophyton mentagrophytes IFM 40,996 were also plated on PDA and incubated for 2 weeks at 28 °C. Spores were harvested and washed twice with sterile distilled water. Stock solutions of 1 and 2 were prepared in DMSO. Each stock solution was diluted with RPMI 1640 broth (Difco, Livonia, MI, USA) to give serial twofold dilutions in the range of 0.06–128 µg/mL. The final DMSO concentration was maintained at 1% by adding DMSO to the broth. Aliquots (10 µL) of the RPMI 1640 broth containing approximately 10^4 cells/mL were mixed with the test compound solutions in each well of a 96-well plate. The plates were incubated for 24 h (for C. albicans), 48 h (for A. fumigatus), and 96 h (for T. rubrum and T. mentagrophytes) at 37 °C. A culture with DMSO (1%) was used as a solvent control, and a culture supplemented with amphotericin B was used as a positive control. The biological activities of mohangic acid H (1) and mohangiol (2) were evaluated in multiple ways. 1 and 2 were evaluated for inhibitory activities against pathogenic bacteria (Staphylococcus aureus ATCC 25923, Enterococcus faecalis ATCC 19433, Enterococcus faecium ATCC 19434, Salmonella enterica ATCC 14028, Escherichia coli ATCC 25922, Klebsiella pneumoniae ATCC 10031) and fungi (Candida albicans ATCC 10231, Aspergillus fumigatus HIC 6094, Trichophyton rubrum NBRC 9185, Trichophyton mentagrophytes IFM 40996) in broth microdilution MIC assays.

[3] = test system: T3, A. fumigatus; assay: microbe, parasite or virus in culture; parameters: broth microdilution antifungal MIC in RPMI 1640, growth inhibition; conditions: Aspergillus fumigatus, 48 h
T3 construct: HIC 6094
Method: as §1

[4] = test system: T4, T. mentagrophytes; assay: microbe, parasite or virus in culture; parameters: broth microdilution antifungal MIC in RPMI 1640, growth inhibition; conditions: Trichophyton mentagrophytes, 96 h
T4 construct: IFM 40996
Method: as §1

[5] = test system: T5, T. rubrum; assay: microbe, parasite or virus in culture; parameters: broth microdilution antifungal MIC in RPMI 1640, growth inhibition; conditions: Trichophyton rubrum, 96 h
T5 construct: NBRC 9185
Method: as §1

[6] = test system: T6, S. aureus; assay: microbe, parasite or virus in culture; parameters: broth microdilution antibacterial MIC, growth inhibition; conditions: Staphylococcus aureus, 24 h
T6 construct: ATCC 25923
Method: (§2) Three species of Gram-positive bacteria (Staphylococcus aureus ATCC 25923, Enterococcus faecalis ATCC 19433, and Enterococcus faecium ATCC 19434) and three species of Gram-negative bacteria (Klebsiella pneumoniae ATCC 10031, Salmonella enterica ATCC 14028, and Escherichia coli ATCC 25922) as human pathogens were selected as test strains and prepared for the antibacterial activity assays. The test bacterial strains were cultured overnight in Mueller–Hinton broth (MHB) at 37 °C for human pathogens and in tryptic soy broth (TSB) at 28 °C for B. thuringiensis. The grown strains were harvested by using a centrifuge and washed twice with sterilized water. Ampicillin and tetracycline were used as positive controls, and dimethyl sulfoxide (DMSO) was used as a negative control. Each compound, including 1 and 2, was dissolved in DMSO and diluted with MHB or TSB to prepare serial two-fold dilutions (from 128 µg/mL to 0.015 µg/mL). For the antibacterial activity assay, 10 µL of suspensions containing 1 × 10^6 colony forming units (CFU)/mL of the test bacteria and 190 µL of MHB or TSB, which included the positive control compounds or test compounds, were added into each well of a 96-well plate (final concentration of test bacteria was 5 × 10^4 CFU/mL). Then, the plate was incubated at 37 °C or 28 °C for 24 h. […] The biological activities of mohangic acid H (1) and mohangiol (2) were evaluated in multiple ways. 1 and 2 were evaluated for inhibitory activities against pathogenic bacteria (Staphylococcus aureus ATCC 25923, Enterococcus faecalis ATCC 19433, Enterococcus faecium ATCC 19434, Salmonella enterica ATCC 14028, Escherichia coli ATCC 25922, Klebsiella pneumoniae ATCC 10031) and fungi (Candida albicans ATCC 10231, Aspergillus fumigatus HIC 6094, Trichophyton rubrum NBRC 9185, Trichophyton mentagrophytes IFM 40996) in broth microdilution MIC assays.

[7] = test system: T7, E. coli; assay: microbe, parasite or virus in culture; parameters: broth microdilution antibacterial MIC, growth inhibition; conditions: Escherichia coli, 24 h
T7 construct: ATCC 25922
Method: as §2

[8] = test system: T8, E. faecalis; assay: microbe, parasite or virus in culture; parameters: broth microdilution antibacterial MIC, growth inhibition; conditions: Enterococcus faecalis, 24 h
T8 construct: ATCC 19433
Method: as §2

[9] = test system: T9, E. faecium; assay: microbe, parasite or virus in culture; parameters: broth microdilution antibacterial MIC, growth inhibition; conditions: Enterococcus faecium, 24 h
T9 construct: ATCC 19434
Method: as §2

[10] = test system: T10, S. enterica; assay: microbe, parasite or virus in culture; parameters: broth microdilution antibacterial MIC, growth inhibition; conditions: Salmonella enterica, 24 h
T10 construct: ATCC 14028
Method: as §2

[11] = test system: T11, K. pneumonia; assay: microbe, parasite or virus in culture; parameters: broth microdilution antibacterial MIC, growth inhibition; conditions: Klebsiella pneumoniae, 24 h
T11 construct: ATCC 10031
Method: as §2

[12] = read-out: IC50 (μg/mL) (converted)

T1 sequence (Q9P8Q7 whole entry): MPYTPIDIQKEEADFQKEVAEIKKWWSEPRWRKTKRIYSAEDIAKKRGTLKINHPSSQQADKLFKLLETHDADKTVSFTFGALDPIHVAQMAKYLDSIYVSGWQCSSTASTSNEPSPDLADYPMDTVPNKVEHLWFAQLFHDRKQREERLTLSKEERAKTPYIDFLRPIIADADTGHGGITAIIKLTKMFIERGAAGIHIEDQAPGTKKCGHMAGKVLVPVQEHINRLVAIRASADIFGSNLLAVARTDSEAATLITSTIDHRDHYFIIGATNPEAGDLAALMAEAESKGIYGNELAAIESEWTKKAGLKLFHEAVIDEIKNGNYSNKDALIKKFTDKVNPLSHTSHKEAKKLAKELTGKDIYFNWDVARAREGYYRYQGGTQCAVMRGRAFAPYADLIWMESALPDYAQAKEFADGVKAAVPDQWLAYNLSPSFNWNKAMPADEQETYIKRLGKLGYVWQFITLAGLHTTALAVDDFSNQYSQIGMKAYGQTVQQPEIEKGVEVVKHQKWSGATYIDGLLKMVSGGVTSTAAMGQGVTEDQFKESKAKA

SMILES	IC50 [1]	IC50 [1, 12]	MIC [2]	MIC [3]	MIC [4]	MIC [5]	MIC [6]	MIC [7]	MIC [8]	MIC [9]	MIC [10]	MIC [11]
O=C(O)CC[N+](=O)[O-] [3-nitropropionate, reference compound]	126 µM	–	–	–	–	–	–	–	–	–	–	–
CC(=O)Nc1ccc(C(=O)C[C@@H](O)[C@H](C)C[C@@H](C)[C@H](O)[C@H](C)/C=C/C=C/C(=O)O)cc1 [compound 1, Mohangic acid H]	–	49.5 µM	> 128 µM	> 128 µM	> 128 µM	> 128 µM	> 128 µM	> 128 µM	> 128 µM	> 128 µM	> 128 µM	> 128 µM
C[C@H](O)CC/C=C/C=C/[C@@H](C)[C@@H](O)[C@H](C)C[C@@H](C)[C@H](O)CC(=O)c1ccc(N)cc1 [compound 2, Mohangiol]	–	50.6 µM	> 128 µM	> 128 µM	> 128 µM	> 128 µM	> 128 µM	> 128 µM	> 128 µM	> 128 µM	> 128 µM	> 128 µM

Reference: PMC12387680, “Mohangic Acid H and Mohangiol: New p-Aminoacetophenone Derivatives from a Mudflat-Derived Streptomyces sp” (Marine Drugs, 2025)
